Measurements: PMC9229843, “Cancer-Related Somatic Mutations in Transmembrane Helices Alter Adenosine A1 Receptor Pharmacology” (Molecules, 2022)
Where a chain is given by its changes, count along the chain named.

Experiments:
Experiment in all cases: [3H]DPCPX radioligand displacement assay, CHO membranes
Assay type in all cases: binding
Conditions in all cases: fraction of high-affinity state; two-site model
hA1AR L134F^4.52 = target: T1, hA1AR L134F^4.52 (Homo sapiens, UniProt P30542, L134F); set-up: expressed in transfected cells; host or cells: CHO cells, transient; membranes
T1 sequence (P30542 1-326 L134F): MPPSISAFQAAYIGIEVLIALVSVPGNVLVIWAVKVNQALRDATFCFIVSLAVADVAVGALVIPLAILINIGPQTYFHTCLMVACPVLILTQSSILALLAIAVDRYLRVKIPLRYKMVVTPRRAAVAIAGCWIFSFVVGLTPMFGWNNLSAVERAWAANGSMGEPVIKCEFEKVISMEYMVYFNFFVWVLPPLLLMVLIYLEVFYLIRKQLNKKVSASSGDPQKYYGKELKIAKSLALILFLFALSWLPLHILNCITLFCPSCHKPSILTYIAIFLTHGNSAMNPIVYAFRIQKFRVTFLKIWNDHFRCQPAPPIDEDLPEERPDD
Method: (§1) Transient transfection of CHO cells with wild type or mutated hA1AR plasmid constructs was performed using a polyethylenimine (PEI) method. Cells were seeded in 10-cm culture dishes to achieve 50–60% confluency 24 h prior to transfection. On the day of transfection, cells were transfected with a PEI: DNA ratio of 3:1 and a plasmid DNA amount of 10 μg/dish. Moreover, 24 h post-transfection, the medium was refreshed, and 48 h after transfection, cells were collected and membranes were prepared as previously described. Membranes were aliquoted in 250 or 100 μL and stored at −80 °C. Membrane protein concentrations were determined using the BCA method.
(§2) The displacement assays were performed as described previously. […] Note, the number of cell membranes (10–25 µg) was adjusted to obtain (approximately) a 1500 DPM assay window for each mutant. […] Incubations were terminated after 1 h at 25 °C by rapid vacuum filtration through GF/B filter plates (PerkinElmer, Groningen, Netherlands) using a Perkin Elmer Filtermate-harvester. Afterward, filter plates were washed ten times with ice-cold buffer (50 mM Tris-HCl, pH 7.4) and dried at 55 °C for 30 min. After the addition of 25 µL per well of the Microscint scintillation cocktail (PerkinElmer, Groningen, The Netherlands), the filter-bound radioactivity was measured by scintillation spectrometry in a Microbeta2® 2450 microplate counter (PerkinElmer).
(§3) All experimental data were analyzed by GraphPad Prism 7.0 or 8.0 (GraphPad Software Inc., San Diego, CA, USA). Data from yeast liquid growth and [^35S]GTPγS binding assays were analyzed by non-linear regression using “log (agonist) vs. response (three parameters)” or “log (inhibitor) vs. response (three parameters)” to obtain potency (EC50), inhibitory potency (IC50), and efficacy (Emax or Imax) values. The radioligand displacement curves were obtained from a statistically preferred one-site or two-site binding model. pKi values were calculated from pIC50 values using the Cheng–Prusoff equation, where KD values were obtained from the homologous competition assays from this study and calculated by non-linear regression using “one site–homologous” [62].

hA1AR W188C^5.46 = target: T2, hA1AR W188C^5.46 (Homo sapiens, UniProt P30542, W188C); set-up: expressed in transfected cells; host or cells: CHO cells, transient; membranes
T2 sequence (P30542 1-326 W188C): T1 sequence (P30542 1-326 L134F) with F134L, W188C
Method: as §1, §2, §3

hA1AR S246T^6.47 = target: T3, hA1AR S246T^6.47 (Homo sapiens, UniProt P30542, S246T); set-up: expressed in transfected cells; host or cells: CHO cells, transient; membranes
T3 sequence (P30542 1-326 S246T): T1 sequence (P30542 1-326 L134F) with F134L, S246T
Method: as §1, §2, §3

hA1AR H78L^3.23 = target: T4, hA1AR H78L^3.23 (Homo sapiens, UniProt P30542, H78L); set-up: expressed in transfected cells; host or cells: CHO cells, transient; membranes
T4 sequence (P30542 1-326 H78L): T1 sequence (P30542 1-326 L134F) with H78L, F134L
Method: as §1, §2, §3

hA1AR G279S^7.44 = target: T5, hA1AR G279S^7.44 (Homo sapiens, UniProt P30542, G279S); set-up: HA; expressed in transfected cells; host or cells: CHO cells, transient PEI transfection; membranes prepared
T5 sequence (P30542 1-326 G279S): T1 sequence (P30542 1-326 L134F) with F134L, G279S
Method: as §1
The displacement assays were performed as described previously. […] After the addition of 25 µL per well of the Microscint scintillation cocktail (PerkinElmer, Groningen, The Netherlands), the filter-bound radioactivity was measured by scintillation spectrometry in a Microbeta2® 2450 microplate counter (PerkinElmer).
All experimental data were analyzed by GraphPad Prism 7.0 or 8.0 (GraphPad Software Inc., San Diego, CA, USA). Data from yeast liquid growth and [^35S]GTPγS binding assays were analyzed by non-linear regression using “log (agonist) vs. response (three parameters)” or “log (inhibitor) vs. response (three parameters)” to obtain potency (EC50), inhibitory potency (IC50), and efficacy (Emax or Imax) values. […]

Structure (SMILES): OC[C@H]1O[C@@H](n2cnc3c(NC4CCCC4)ncnc32)[C@H](O)[C@@H]1O [CPA, N^6-cyclopentyladenosine]
- Fraction (High) (hA1AR L134F^4.52): 0.34 ± 0.03
- Fraction (High) (hA1AR W188C^5.46): 0.29 ± 0.01
- Fraction (High) (hA1AR S246T^6.47): 0.26 ± 0.03
- Fraction (High) (hA1AR H78L^3.23): 0.33 ± 0.04
- Fraction (High) (hA1AR G279S^7.44): 0.17 ± 0.04
